Results on 4 molecules are retold here after article PMC10252614 (International Journal of Molecular Sciences, 2023).

A short description of data set [1]: in vitro. The following applies: human, undifferentiated SH-SY5Y cells.
Data set [2] has as its target T1, hMAO-B (Homo sapiens, UniProt P27338).
T1 construct: purchased Merck (Prague, Czech Republic)
T1 sequence (P27338 1-520): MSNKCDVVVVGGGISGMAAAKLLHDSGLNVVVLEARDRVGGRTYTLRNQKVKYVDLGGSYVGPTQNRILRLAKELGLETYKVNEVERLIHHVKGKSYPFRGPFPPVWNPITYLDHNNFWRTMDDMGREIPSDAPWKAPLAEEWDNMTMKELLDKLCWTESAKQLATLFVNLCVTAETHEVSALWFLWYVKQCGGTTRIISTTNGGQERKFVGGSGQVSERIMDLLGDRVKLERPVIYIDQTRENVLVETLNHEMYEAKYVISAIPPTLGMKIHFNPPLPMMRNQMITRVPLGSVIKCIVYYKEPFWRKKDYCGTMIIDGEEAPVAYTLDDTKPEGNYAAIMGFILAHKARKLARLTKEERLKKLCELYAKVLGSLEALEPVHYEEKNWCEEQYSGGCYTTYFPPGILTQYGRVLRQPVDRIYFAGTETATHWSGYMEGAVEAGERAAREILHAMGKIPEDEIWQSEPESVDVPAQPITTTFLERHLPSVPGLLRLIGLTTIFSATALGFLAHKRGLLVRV
Kind of data set: in vitro inhibition of hMAO-B, kynuramine fluorescence assay. The format is biochemical. Here is the method:
The hMAO-A and hMAO-B enzymes were purchased from Merck (Prague, Czech Republic). […] The mixture was pre-incubated at 37 °C for 15 min and subsequently substrate kynuramine was added to the final concentration of 100 µM. The final volume of reaction mixture was 0.1 mL. The whole reaction mixture was incubated at 37 °C for 30 min. The reaction was stopped by the addition of 20 µL 4M NaOH.

Data set [3] concerns the target T2, human BChE (hBChE) (Homo sapiens, UniProt P06276).
T2 construct: made in house
Kind of data set: hBChE inhibition, modified Ellman's method. To be noted: 10^-6 M. It counts as biochemical. How it is done:
(§1) N-Methylpropargylamine-quinazolines were tested for their inhibitory potency against human AChE (hAChE) and human BChE (hBChE) enzymes using the modified spectrophotometric method of Ellman et al..
(§2) The human recombinant BChE and AChE were prepared at the Department of Toxicology and Military Pharmacy (Faculty of Military Health Sciences, Hradec Kralove, Czech Republic). 5,5′-dithiobis(2-nitrobenzoic acid) (Ellman’s reagent, DTNB), phosphate buffer (PB, pH 7.4), acetylthiocholine (ATC) and butyrylthiocholine (BTC), were purchased from Sigma-Aldrich, Prague, Czech Republic. For measuring purposes, polystyrene Nunc 96-well microplates with a flat-bottom shape (ThermoFisher Scientific, Waltham, MA, USA) were utilized. All the assays were carried out in 0.1 M KH2PO4/K2HPO4 buffer, pH 7.4. Enzyme solutions were prepared at 2.0 units/mL in 2 mL aliquots. The assay medium consisted of a 0.1 M phosphate buffer (pH 7.4), 0.01 M DTNB, the enzyme, and 0.01 M substrate (ATC/BTC iodide solution). Concentration 1 µM was tested and the % of inhibition was calculated. Tested compounds were pre-incubated for 5 min. The reaction was started by immediate addition of 20 μL of the substrate. […] Each concentration was assayed in triplicate. Software GraphPad Prism 5 (San Diego, CA, USA) was used for the statistical data evaluation.
On the technique in general: Ellman's reagent forms a yellow product with free thiols.

Data set [4] concerns the target T3, human AChE (hAChE) (Homo sapiens, UniProt P22303).
T3 construct: made in house
Kind of data set: hAChE inhibition, modified Ellman's method. The following applies: read-out: % of AChE inhibition. The format is biochemical. Here is the method:
as §1, §2

The target of data set [5] is T1, hMAO-B. Kind of data set: hMAO-B inhibition mechanism: dialysis reversibility and kinetics. The format is biochemical. The following applies: for mode of hMAO-B inhibition: non-linear regression according to Michaelis–Menten. Here is the method:
The MAOs were subsequently incubated with selected compounds at different concentrations and evaluated by non-linear regression according to Michaelis–Menten (Figure 5).
Inhibition mechanism was determined by non-linear regression and the double reciprocal method by Lineweaver–Burk using GraphPad Prism 8.2 software. […] The recovery of enzyme activity was determined using the above-mentioned protocol.

Data set [6] deals with SH-SY5Y cells. Description: nuclear condensation and fragmentation, Hoechst 33258 assay. The format is cell-based, human. To be noted: 100 µM, 24 h. Here is the method:
Thus, SH-SY5Y cells were incubated with II-6h and III-6a (10 and 100 µM) for 24 h. After the treatment, dehydrogenase activity, glutathione levels, nuclear condensation and fragmentation, and ATP levels were measured (Figure 7). […] The decrease in dehydrogenase activity was found in cells treated with 100 µM II-6h (p < 0.001).
To measure nuclear condensation and fragmentation in intact cells, we used fluorescence dye Hoechst 33258 (H33258, 1 mg/mL; Merck, USA). After cell treatment with II-6h (10–100 µM) and III-6a (10–100 µM), the cells grown in a 96-well plate were centrifuged (5 min; 8000g; RT). Then, 70 µL of a supernatant was replaced with 70 µL of PBS 1× and 10 µL of H33258 solution was added to a well. The final concentrations of H33258 in a well was 2 µg/mL. Then, the cells were incubated with H33258 for 5 min and spectrofluorometric measurement was performed at Ex/Em = 352/461 nm using SPARK microplate reader (Tecan, Austria) while incubated at 37 °C. The samples were measured at least in triplicates. After background subtraction, the fluorescence signal was presented in RFU as mean ± SEM.

Data set [7] has as its system SH-SY5Y cells. Kind of data set: glutathione levels, monochlorobimane assay. The following applies: 10 µM, 24 h. The format is cell-based, human. Here is the method:
Next, we tested the effects of the compounds on intracellular dehydrogenase activity and glutathione levels. […] To evaluate the effects of the compounds on cells, we measured total intracellular dehydrogenase activity as a marker of cellular viability and glutathione levels for evaluation of oxidative stress (Table 6).
The glutathione (GSH) levels were measured using an optimized monochlorobimane assay. The working solutions of monochlorobimane (MCB, Merck, Rahway, NJ, USA) were prepared fresh at the time of analysis by dilution in Dulbecco’s phosphate buffer (PBS; pH 7; 1 µM, Merck, USA) and tempered at 37 °C for 30 min. After the treatment of cells with I-6e (100 µM), I-6h (100 µM), II-6e (100 µM), II-6h (10–100 µM) and III-6a (10–100 µM), 20 μL of the MCB solution was added to the cells in 96-well microplates and the measurement started immediately (final concentration of MCB in a well was 40 μmol/L) The fluorescence intensity (Ex/Em = 394/490 nm) was measured kinetically for 20 min using SPARK microplate reader (Tecan, Austria). The fluorescence was expressed as the slope of a fluorescence change over time. The GSH levels were expressed as the percentage relative to the GSH levels in control cells (control = 100%).

Molecules are shown by their SMILES.

One may read the IC50 as the concentration that gives 50% inhibition. A word on the inhibition: it is the percentage by which the read-out fell short of the control.

T3 sequence (P22303 32-614): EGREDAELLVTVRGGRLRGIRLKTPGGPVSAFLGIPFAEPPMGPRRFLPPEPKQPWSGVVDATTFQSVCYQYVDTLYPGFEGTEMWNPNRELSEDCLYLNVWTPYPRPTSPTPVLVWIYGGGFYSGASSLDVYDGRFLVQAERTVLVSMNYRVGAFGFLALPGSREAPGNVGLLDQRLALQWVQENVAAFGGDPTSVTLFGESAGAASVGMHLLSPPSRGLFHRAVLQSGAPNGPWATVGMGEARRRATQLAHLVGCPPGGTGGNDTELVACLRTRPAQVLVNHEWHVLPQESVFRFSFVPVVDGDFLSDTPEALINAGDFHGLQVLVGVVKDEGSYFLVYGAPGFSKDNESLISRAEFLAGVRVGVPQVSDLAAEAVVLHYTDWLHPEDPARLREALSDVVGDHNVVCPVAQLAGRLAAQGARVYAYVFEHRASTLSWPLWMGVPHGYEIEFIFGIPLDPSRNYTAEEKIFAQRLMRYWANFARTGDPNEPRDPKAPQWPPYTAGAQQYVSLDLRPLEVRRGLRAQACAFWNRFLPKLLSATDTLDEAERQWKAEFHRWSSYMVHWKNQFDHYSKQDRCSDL
T2 sequence (P06276 29-602): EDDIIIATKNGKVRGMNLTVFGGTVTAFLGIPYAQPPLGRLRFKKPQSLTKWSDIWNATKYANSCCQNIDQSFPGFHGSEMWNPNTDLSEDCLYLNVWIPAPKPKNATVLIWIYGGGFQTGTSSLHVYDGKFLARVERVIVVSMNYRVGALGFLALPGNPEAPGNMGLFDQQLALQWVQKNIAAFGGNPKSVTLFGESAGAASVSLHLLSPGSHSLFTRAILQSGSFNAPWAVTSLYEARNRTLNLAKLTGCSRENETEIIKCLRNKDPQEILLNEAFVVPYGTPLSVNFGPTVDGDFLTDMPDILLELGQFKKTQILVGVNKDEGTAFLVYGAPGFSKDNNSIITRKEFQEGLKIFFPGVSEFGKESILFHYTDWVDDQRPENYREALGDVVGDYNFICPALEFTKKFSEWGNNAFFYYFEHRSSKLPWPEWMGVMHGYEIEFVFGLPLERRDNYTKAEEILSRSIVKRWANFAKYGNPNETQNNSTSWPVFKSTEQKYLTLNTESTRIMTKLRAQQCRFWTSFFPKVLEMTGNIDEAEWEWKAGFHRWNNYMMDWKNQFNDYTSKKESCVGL

In data set [1], `C#CCN(C)c1nc(NCCCC)c2ccccc2n1` [I-6e, N4-butyl-N2-methyl-N2-(prop-2-yn-1-yl)quinazoline-2,4-diamine] showed an IC50 at 24 h of 67.95 ± 0.22 µM. Further, the “selectivity profile hMAO-A vs hMAO-B (in words)” value in data set [2] is reported as “hMAO-A selective inhibitors”. For the same molecule, the figures for the inhibition at 1 µM in data set [3] and in data set [4] were 4% and 3%, respectively.

For the molecule `C#CCN(C)c1nc(NC2CCCCC2)c2ccccc2n1` [I-6h, N4-cyclohexyl-N2-methyl-N2-(prop-2-yn-1-yl)quinazoline-2,4-diamine], the IC50 at 24 h in data set [1] is 53.2 ± 3.03 µM. Further, the “mode of hMAO-B inhibition” value in data set [5] was “mixed mode inhibition”. In data set [2], the IC50 stood at 8.69 ± 0.12 µM and the “selectivity profile hMAO-A vs hMAO-B (in words)” value was “inhibitor of both hMAO isoforms, with a preference for hMAO-B inhibition”. Besides, in data set [2] (IC50(MAO-A)/IC50(MAO-B)), the “SI for MAO-B” value worked out at 0.10. In data set [3], testing at 1 µM gave an inhibition of 0%. Further, the inhibition at 1 µM in data set [4] was 4%.

`C#CCN(C)c1nc(NC2CCCCC2)c2ccc(Cl)cc2n1` [II-6h, 7-chloro-N4-cyclohexyl-N2-methyl-N2-(prop-2-yn-1-yl)quinazoline-2,4-diamine] showed an IC50 at 24 h in data set [1] of 35 ± 1.53 µM. Moreover, the “nuclear condensation and fragmentation (in words)” value in data set [6] is “significant increase”. The “mode of hMAO-B inhibition” value in data set [5] is given as “mixed mode inhibition”. The “reversible/irreversible inhibitory action towards hMAO-B” value in data set [5] (recovery of enzyme activity after dialysis) is reported as “only a partial recovery”. Moreover, in data set [7], the “change in glutathione levels (in words)” value is recorded as “no significant changes”. Also, in data set [2], the IC50 is 0.33 ± 0.02 µM and the “selectivity profile hMAO-A vs hMAO-B (in words)” value is on record as “hMAO-B selective inhibitors”. The same molecule came in with an inhibition at 1 µM in data set [3] of 3%. For the same molecule, in data set [4], the inhibition at 1 µM worked out at 3%.

In data set [1], `C#CCN(C)c1nc(N)c2cc(OC)ccc2n1` [III-6a, 6-methoxy-N2-methyl-N2-(prop-2-yn-1-yl)quinazoline-2,4-diamine] had an IC50 at 24 h of 38.6 ± 0.82 µM. In addition, the “nuclear condensation and fragmentation (in words)” value in data set [6] was “significant increase”. Further, the “change in glutathione levels (in words)” value in data set [7] is on record as “no significant changes”. Moreover, the “selectivity profile hMAO-A vs hMAO-B (in words)” value in data set [2] was “hMAO-A selective inhibitors”. Also, the inhibition at 1 µM came out at 1% in data set [3] and 9% in data set [4].
